Common to all, as to assay: Enzyme Assay
The target in experiment [1] is PIK3CG (human) (UniProt P48736).
The target of experiment [2] is PIK3CB (Human) (UniProt P42338).
Experiment [3] concerns the target PIK3CD (Human) (UniProt O00329).

Chain of PIK3CD (Human) (O00329 whole entry, looked up): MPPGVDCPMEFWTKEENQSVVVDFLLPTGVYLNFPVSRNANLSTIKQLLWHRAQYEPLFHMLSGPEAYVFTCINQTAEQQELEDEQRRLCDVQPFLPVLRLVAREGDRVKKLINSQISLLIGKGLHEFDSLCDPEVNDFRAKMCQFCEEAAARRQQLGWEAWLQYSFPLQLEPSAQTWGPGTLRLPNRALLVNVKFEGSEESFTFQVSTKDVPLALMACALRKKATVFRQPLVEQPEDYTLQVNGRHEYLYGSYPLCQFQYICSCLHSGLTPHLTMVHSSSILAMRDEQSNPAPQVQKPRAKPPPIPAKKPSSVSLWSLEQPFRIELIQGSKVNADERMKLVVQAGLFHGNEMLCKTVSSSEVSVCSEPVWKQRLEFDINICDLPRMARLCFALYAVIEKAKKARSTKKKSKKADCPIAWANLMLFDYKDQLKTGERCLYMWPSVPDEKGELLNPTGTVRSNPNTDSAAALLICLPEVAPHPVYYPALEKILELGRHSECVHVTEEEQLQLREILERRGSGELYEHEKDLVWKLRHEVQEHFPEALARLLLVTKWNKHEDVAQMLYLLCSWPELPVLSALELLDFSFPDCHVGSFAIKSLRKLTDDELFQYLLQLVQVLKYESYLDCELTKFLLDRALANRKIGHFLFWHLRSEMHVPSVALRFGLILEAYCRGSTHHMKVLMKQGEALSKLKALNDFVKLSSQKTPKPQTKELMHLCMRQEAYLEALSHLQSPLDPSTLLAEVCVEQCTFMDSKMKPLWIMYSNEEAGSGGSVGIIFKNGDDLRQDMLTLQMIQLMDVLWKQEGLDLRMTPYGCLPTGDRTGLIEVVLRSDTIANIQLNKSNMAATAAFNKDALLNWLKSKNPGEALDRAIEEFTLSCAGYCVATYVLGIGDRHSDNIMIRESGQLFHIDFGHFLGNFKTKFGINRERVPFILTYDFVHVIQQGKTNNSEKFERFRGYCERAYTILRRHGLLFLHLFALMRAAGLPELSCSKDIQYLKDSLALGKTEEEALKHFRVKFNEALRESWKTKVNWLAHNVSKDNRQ
Chain of PIK3CG (human) (P48736 whole entry, looked up): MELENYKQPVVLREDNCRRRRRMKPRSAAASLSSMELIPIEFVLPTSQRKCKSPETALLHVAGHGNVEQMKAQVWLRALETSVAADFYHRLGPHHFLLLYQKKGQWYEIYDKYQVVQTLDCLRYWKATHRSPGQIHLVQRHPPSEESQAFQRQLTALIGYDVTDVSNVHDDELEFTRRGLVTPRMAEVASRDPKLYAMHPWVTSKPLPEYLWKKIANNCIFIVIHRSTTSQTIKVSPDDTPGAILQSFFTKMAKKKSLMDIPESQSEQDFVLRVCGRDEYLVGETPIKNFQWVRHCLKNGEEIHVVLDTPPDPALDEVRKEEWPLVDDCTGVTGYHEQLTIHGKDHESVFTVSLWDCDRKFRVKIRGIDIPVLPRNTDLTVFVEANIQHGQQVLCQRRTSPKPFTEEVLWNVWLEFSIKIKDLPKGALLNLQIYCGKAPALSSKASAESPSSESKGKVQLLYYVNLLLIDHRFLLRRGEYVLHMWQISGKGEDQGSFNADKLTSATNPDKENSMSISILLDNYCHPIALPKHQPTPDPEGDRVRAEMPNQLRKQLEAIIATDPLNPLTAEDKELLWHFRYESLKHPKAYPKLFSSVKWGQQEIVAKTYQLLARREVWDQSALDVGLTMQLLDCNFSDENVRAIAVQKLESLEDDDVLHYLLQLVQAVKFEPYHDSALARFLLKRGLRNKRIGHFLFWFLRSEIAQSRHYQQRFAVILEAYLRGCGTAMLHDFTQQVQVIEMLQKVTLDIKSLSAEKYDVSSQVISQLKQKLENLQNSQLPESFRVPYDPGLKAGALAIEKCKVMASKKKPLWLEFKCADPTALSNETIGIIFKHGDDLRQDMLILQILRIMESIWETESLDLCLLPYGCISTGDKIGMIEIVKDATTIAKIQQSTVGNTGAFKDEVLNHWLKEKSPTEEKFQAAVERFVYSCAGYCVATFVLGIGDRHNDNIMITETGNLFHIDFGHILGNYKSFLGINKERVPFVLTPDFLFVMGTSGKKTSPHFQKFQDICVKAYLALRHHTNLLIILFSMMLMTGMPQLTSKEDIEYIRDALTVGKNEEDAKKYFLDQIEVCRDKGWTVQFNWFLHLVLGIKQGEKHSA
Chain of PIK3CB (Human) (P42338 whole entry, looked up): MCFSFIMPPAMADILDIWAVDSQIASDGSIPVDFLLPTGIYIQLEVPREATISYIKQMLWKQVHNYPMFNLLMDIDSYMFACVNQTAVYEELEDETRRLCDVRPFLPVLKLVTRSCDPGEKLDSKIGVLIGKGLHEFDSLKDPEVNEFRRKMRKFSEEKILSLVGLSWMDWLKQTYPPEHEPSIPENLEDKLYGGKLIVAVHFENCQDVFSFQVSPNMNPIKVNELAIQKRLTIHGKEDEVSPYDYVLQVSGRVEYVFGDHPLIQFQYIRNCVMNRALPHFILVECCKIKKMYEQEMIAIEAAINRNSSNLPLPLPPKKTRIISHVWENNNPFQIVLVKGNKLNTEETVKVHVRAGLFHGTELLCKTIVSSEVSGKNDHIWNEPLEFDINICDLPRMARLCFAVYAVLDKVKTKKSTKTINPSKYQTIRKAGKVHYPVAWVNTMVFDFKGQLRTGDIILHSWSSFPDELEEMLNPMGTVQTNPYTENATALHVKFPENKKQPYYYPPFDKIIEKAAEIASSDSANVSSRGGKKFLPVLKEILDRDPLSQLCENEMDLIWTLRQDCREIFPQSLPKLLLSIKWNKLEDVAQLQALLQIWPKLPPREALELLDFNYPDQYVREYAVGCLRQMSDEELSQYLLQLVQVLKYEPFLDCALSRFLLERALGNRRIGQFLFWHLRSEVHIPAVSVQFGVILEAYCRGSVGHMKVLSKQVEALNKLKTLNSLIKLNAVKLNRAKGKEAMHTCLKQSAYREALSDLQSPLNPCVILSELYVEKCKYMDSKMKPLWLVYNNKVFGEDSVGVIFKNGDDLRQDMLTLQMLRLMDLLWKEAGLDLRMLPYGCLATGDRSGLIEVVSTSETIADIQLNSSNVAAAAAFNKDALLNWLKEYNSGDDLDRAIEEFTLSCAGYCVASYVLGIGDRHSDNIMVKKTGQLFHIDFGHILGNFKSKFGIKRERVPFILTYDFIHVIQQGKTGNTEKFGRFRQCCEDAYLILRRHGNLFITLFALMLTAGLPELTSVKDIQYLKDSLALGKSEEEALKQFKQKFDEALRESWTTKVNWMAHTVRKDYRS

`CC(C)Cc1cc(-n2c([C@H](C)Nc3ncnc(N)c3C#N)nc3cccc(Cl)c3c2=O)n[nH]1` came in with a 50% inhibitory concentration (IC50) in experiment [1] of more than 10 µM. In experiment [1], `Nc1nc(N)c(Cl)c(N[C@H](c2nc3c(Cl)cc(F)cc3c(=O)n2-c2cc[nH]n2)C2CC2)n1` displayed an IC50 of more than 10 µM. For the compound `C[C@H](Nc1nc(N)nc(N)c1C#N)c1nc2c(C(F)F)cccc2c(=O)n1-c1cc[nH]n1`, the IC50 in experiment [2] was 0.004 µM; in experiment [3], 0.009 µM; in experiment [1] it was more than 10 µM.

In the case of `CC[C@H](Nc1ncnc2[nH]cc(F)c12)c1nc2c(Cl)ccc(Cl)c2c(=O)n1-c1cc[nH]n1`, the IC50 in experiment [3] came to 0.003 µM. The compound `C[C@H](Nc1nc(N)nc(C(F)F)c1Cl)c1nc2c(F)c(F)ccc2c(=O)n1-c1cc[nH]n1` came in with an IC50 in experiment [2] of more than 10 µM. For the compound `C[C@H](Nc1nc(N)nc(N)c1C#N)c1nc2ccc(Cl)cc2c(=O)n1-c1cc[nH]n1`, the figures for the IC50 in experiment [3] and in experiment [1] were 0.14 µM and 9.3 µM, respectively. As for `Cc1c[nH]nc1-n1c([C@@H](NC2=NC(N)=NC3=NN=C(Br)C32)C2CC2)nc2cccc(Cl)c2c1=O` (stereo partly drawn), the IC50 in experiment [1] is more than 10 µM. On the same count and under the same terms, then `Nc1nc(N)c(Cl)c(N[C@H](c2nc3cccc(Cl)c3c(=O)n2-c2cc[nH]n2)C2CCC2)n1`, with more than 10 µM; and `CC(C)[C@H](Nc1nc(N)nc(N)c1Cl)c1nc2cccc(Cl)c2c(=O)n1-c1cc[nH]n1`, with 10 µM. `C[C@H](Nc1nc(N)nc(C(F)F)c1Cl)c1nc2cc(F)cc(F)c2c(=O)n1-c1cc[nH]n1`: the IC50 in experiment [2] is more than 10 µM.
